From patent US20070054868A1, “Synergistic polyphenol compounds, compositions thereof, and uses thereof” (The Trustees of Columbia University in the City of New York, priority 2005, published 2007)

Tests used:
Bcl-xL = assay: Western blot analysis in SW837 cells; type: cell-based, human; details: 1.0 μg/mL, 96 hours
Description: (§1) Total cellular protein was extracted and equivalent amounts of protein can be determined by western blot analysis using the methods described in Suzui, et al., Cancer Res., 62:3997-4006 (2002). The primary antibodies for several proteins are described in Masuda et al., Clin Cancer Res., 7:4220-4229 (2001); Masuda et al., Clin Cancer Res., 9:3486-3491 (2003); and Shimizu et al., Clin Cancer Res., 11:2735-2746 (2005). The primary antibodies for HER3 (2F12) and COX-2 (PG27) were purchased from Upstate Cell Signaling Solutions (Charlottesville, Va.) and Oxford Biochemical Research (Oxford, Mich.), respectively. To examine the levels of expression of the phosphorylated (i.e. activated) form of the HER3 protein (p-HER3), cellular lysates (1 mg/mL) were incubated with 4 μg anti-HER3 antibody overnight at 4° C. with slow agitation, and immune complexes were then precipitated by adding protein A/G agarose (sc-2003, Santa Cruz Biotechnology, Santa Cruz, Calif.). After incubating for 2 hours at 4° C., the beads were washed with lysis buffer, and bound proteins were eluted into the sample buffer and subjected to western blot analysis, as described above. The p-HER3 protein was then detected by using an anti-phospho-tyrosine antibody (PY-20-HRP, BD Transduction Laboratories, San Diego, Calif.). An antibody to actin was used as a loading control. Each membrane was developed using an ECL-enhanced chemiluminescence system (Amersham Biosciences, Piscataway, N.J.).

COX-2 protein = assay: Western blot analysis in SW837 cells; type: cell-based, human; details: for cellular level of the COX-2 protein: 20 μg/mL
Description: as §1

p-Akt = assay: Western blot analysis in SW837 cells; type: cell-based, human; details: 20 μg/mL, at 6 hours
Description: as §1

p-EGFR = assay: Western blot analysis in SW837 cells; type: cell-based, human
Description: as §1

p-ERK = assay: Western blot analysis in SW837 cells; type: cell-based, human; details: 20 μg/mL, at 12 hours
Description: as §1

p-HER2 = assay: Western blot analysis in SW837 cells; type: cell-based, human
Description: as §1

[1] = tested on: EGFR, HER2, HER3, Akt and ERK; assay: Western blot analysis in SW837 cells, total levels of the respective proteins; type: cell-based, human; details: 20 μg/mL, during the time course
Description: as §1, with “Each membrane was developed using an ECL-enhanced chemiluminescence system (Amersham Biosciences, Piscataway, N.J.).” left out

[2] = tested on: SW837 human colon cancer cells; assay: DNA fragmentation assay (Cell Death Detection ELISA), apoptosis; type: cell-based
Description: SW837 human colon cancer cells (5.0×10^5 cells/6-cm diameter dish) were treated with EGCG (1.0 or 20 μg/mL) for 48 or 96 hours, and samples were then prepared. Control cells were treated only with DMSO. The extent of DNA fragmentation at time 0 hours was set to 1 and increases expressed as fold activation.

IGF-1 mRNA = assay: Semiquantitative RT-PCR analysis in SW837 cells; type: cell-based, human; details: 20 μg/mL, at 12 hours, additional decline at 24 and 48 hours
Description: (§2) RNA extraction and semiquantitative RT-PCR analysis were performed as described above in Example 7. Total RNA was isolated from SW837 human colon cancer cells using the Trizol reagent (Invitrogen) according to the manufacturer's instructions. cDNA was amplified from 1 μg of total RNA using Superscript one-step RT-PCR with the platinum Taq system (Invitrogen). Actin specific primer sets are described in Suzui, et al., Cancer Res., 62:3997-4006 (2002). […] Each amplification cycle consisted of 0.5 minutes at 94° C. for denaturation, 0.5 minutes at 55° C. for primer annealing, and 1 minute at 72° C. for extension. After PCR amplification, the fragments were analyzed by agarose gel electrophoresis and stained with ethidium bromide. The intensities of bands were quantified with NIH Image software version 1.62.

IGFBP-3 mRNA = assay: Semiquantitative RT-PCR analysis in SW837 cells; type: cell-based, human; details: 20 μg/mL, at 3 to 12 hours, maximum at 6 hours
Description: as §2

MMP-7 mRNA = assay: Semiquantitative RT-PCR analysis in SW837 cells; type: cell-based, human; details: 20 μg/mL, at 12 hours, additional decrease at 24 to 48 hours
Description: as §2

MMP-9 mRNA = assay: Semiquantitative RT-PCR analysis in SW837 cells; type: cell-based, human; details: 20 μg/mL, at 12 hours, additional decrease at 24 to 48 hours
Description: as §2

TGF-β2 mRNA = assay: Semiquantitative RT-PCR analysis in SW837 cells; type: cell-based, human; details: 20 μg/mL, at 3 hours
Description: as §2

IGFBP-3 = assay: Production of IGFBP-3 in HepG2 cells; type: cell-based, human; details: 20 μg/mL
Description: The cells were treated with […] EGCG at 0, 3, 6, 12, 24 and 48 hours, and cell extracts were examined by Western blot analysis using the respective antibodies, or were examined by semiquantitative RT-PCR analysis using IGFBP-3 or IGF-1 specific primers.
Using the MTT cell proliferation assay described in Example 21, and substituting HepG2 human liver cancer cells in place of SW837 cells, the effects of EGCG (20 μg/mL), an illustrative Synergistic Polyphenol Compound, on the production of IGF-1, IGF-2 and IGFBP-3 was determined. […] Accordingly, the Synergistic Polyphenol Compounds are useful for treating or preventing liver cancer.

[3] = tested on: HT29 human colon cancer cells; assay: DilC16-labelled plasma membrane, extraction using cold Triton X-100; type: cell-based
Description: HT29 human colon cancer cells were treated with the fluorescent lipid analog DilC16, which preferentially incorporates into ordered domains in the plasma membrane.

HT29 cells = assay: Filipin staining of plasma membrane cholesterol; type: cell-based, human
Description: (§3) These effects were detected with as little as […] of EGCG, and within 5 minutes. Phosphorylation of EGFR, ERK1, ERK2, and AKT were suppressed in cells treated with methyl-β-cyclodextrin, which depletes plasma membrane cholesterol. […] In addition, the inhibitory effect of EGCG on phosphorylation of EGFR was not blocked by the addition of cholesterol on the growth medium. These findings provide evidence that EGCG can alter membrane domain organization in colon cancer cells ant that this is not due to cholesterol depletion. It was noted that pre-treatment of the cells with EGCG or Poly E inhibited the binding of Alexa 488-labeled EGF to the cell surface receptor EGFR.

EGFR = target: T1, EGFR (Homo sapiens, UniProt P00533); assay: Binding of Alexa 488-labeled EGF to the cell surface receptor; details: HT29 cells pre-treated with test substance
T1 construct: endogenous in cells; host or cells: HT29 colon cancer cells
Description: as §3

[4] = HT29, Triton X-100 sensitivity and DilC16 incorporation

(−)-epigallocatechin gallate
levels of the Bcl-xL protein (Bcl-xL): decrease | levels of the COX-2 protein (COX-2 protein; 1.0 μg/mL, 96 hours): decrease | cellular level of the COX-2 protein (COX-2 protein; after 12 to 24 hours): marked decrease | cellular level of the COX-2 protein (COX-2 protein; at 48 hours): almost undetectable | levels of the p-Akt protein (p-Akt): marked decreases | levels of the p-EGFR protein (p-EGFR; 1.0 μg/mL, 96 hours): decrease | levels of the p-EGFR protein (p-EGFR; 20 μg/mL, within 6 hours): marked decrease | levels of the p-ERK protein (p-ERK): marked decreases | levels of the p-HER2 protein (p-HER2; 1.0 μg/mL, 96 hours): decrease | levels of the p-HER2 protein (p-HER2; 20 μg/mL, within 6 hours): marked decrease | total levels of the respective proteins [1]: no significant changes | apoptosis (DNA fragmentation) ([2]; 1.0 μg/mL, 96 hours): significant increase | apoptosis (DNA fragmentation) ([2]; 20 μg/mL, 48 hours): induction of apoptosis | level of IGF-1 mRNA (IGF-1 mRNA): decrease | levels of IGFBP-3 mRNA (IGFBP-3 mRNA): increase | cellular level of MMP-7 mRNA (MMP-7 mRNA): marked decrease | cellular level of MMP-9 mRNA (MMP-9 mRNA): marked decrease | level of TGF-β2 mRNA (TGF-β2 mRNA): transiently increased | production of IGFBP-3 (IGFBP-3): increased the production | lowest concentration at which the membrane effects were detected [3, 4]: 2 mg/mL | time within which the membrane effects were detected [3, 4]: ≤ 5 min | sensitivity of the plasma membrane to extraction using cold Triton X-100 ([3]; HT29 pretreated with DilC16): marked increase | effects on plasma membrane properties versus cholesterol depletion (filipin staining) (HT29 cells): not associated with cholesterol depletion | binding of Alexa 488-labeled EGF to the cell surface receptor EGFR (EGFR): inhibited
